Counter-ions that a name gives are not always drawn.
Target: αvβ1 integrin (αvβ1 expressing CHO cells) (Homo sapiens (Human), UniProt P05556+P06756)
Experiment: Cell adhesion assay: inhibition of αvβ1 expressing CHO cells attaching to TGFβ1LAP
Assay type: cell-based
Conditions: 1 h at 37° C., crystal violet absorbance 595 nm, read-out: αvβ1 Inhibition IC50 (nM)-range
Experimental: Example B1—Cell Adhesion Assay
In order to determine the potency, the compounds were assessed for their ability to inhibit αvβ1 expressing CHO cells attach to TGFβ1LAP. Microplates were coated overnight with 2 ug/ml TGFβ1LAP at 4° C., and blocked with 2% BSA/PBS for 30 min before the assay. Cells were detached and washed in PBS. After that the cells were resuspended in DMEM at 1.0×10^6 cells/ml, fifty microliter of cell suspension and fifty microliter of compound solution were added into the plate. The plates were incubated for one hour at 37° C. in humidified 5% carbon dioxide. Non-adherent cells were removed by centrifugation top side down at 58 g for 5 min. The attached cells were fixed and stained with 0.5% crystal violet (in 20% methanol and 1% formaldehyde) and the wells washed with PBS. Crystal violet was dissolved in 2% Triton-X in PBS. The relative number of cells in each well was evaluated by the absorbance at 595 nm in a microplate reader (Tecan). IC50 values were determined by non-linear regression with four parameters (Graphpad Prism 7.01, Y=Bottom+(Top−Bottom)/(1+10^((Log IC50−X)*HillSlope)).
The compounds tested were compound samples prepared according to procedures described in the Synthetic Examples section, with the stereochemical purity as indicated in the Examples indicated for Example or Compound No. 1-62. The compounds tested were predominantly S-configuration at the alpha carbon of the amino acid scaffold, except for compounds 123, 124, and 125 which were predominantly R-configuration at the alpha carbon of the amino acid scaffold. “Example or Compound No.” in Table B-1 refers to the compound illustrated in the examples for Example or Compound Nos. 1-62 (the compounds of Examples 1-62 are labeled as Compounds 1-62 in Table 1). “Example or Compound No.” in Table B-1 refers to the compound number as indicated in Table 1 or Table 2 for Example or Compound Nos. 63-126.

αvβ1 integrin (αvβ1 expressing CHO cells), sequence (P06756 31-889): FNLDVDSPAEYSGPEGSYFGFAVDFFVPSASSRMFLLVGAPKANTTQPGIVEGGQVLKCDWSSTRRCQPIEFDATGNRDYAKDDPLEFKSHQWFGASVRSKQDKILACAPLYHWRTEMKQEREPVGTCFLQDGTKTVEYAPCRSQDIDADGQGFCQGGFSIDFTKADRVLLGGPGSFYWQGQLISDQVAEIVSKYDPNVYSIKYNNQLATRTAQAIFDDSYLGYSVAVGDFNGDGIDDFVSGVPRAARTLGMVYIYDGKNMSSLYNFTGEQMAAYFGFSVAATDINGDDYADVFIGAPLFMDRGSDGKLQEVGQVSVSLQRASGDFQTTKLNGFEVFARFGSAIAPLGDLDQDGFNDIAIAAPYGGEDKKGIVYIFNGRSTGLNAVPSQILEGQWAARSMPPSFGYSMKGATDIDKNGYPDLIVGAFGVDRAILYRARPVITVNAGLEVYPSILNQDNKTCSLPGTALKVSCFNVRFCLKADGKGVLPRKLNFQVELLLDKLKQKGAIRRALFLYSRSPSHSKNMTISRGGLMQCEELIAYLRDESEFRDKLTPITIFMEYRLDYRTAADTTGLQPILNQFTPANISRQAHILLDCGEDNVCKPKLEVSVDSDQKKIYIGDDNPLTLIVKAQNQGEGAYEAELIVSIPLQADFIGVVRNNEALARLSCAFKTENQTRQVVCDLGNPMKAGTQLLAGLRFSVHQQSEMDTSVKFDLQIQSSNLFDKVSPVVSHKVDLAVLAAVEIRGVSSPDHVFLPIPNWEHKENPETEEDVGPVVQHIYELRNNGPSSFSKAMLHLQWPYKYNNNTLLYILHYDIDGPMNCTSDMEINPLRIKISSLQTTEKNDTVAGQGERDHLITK
αvβ1 integrin (αvβ1 expressing CHO cells), sequence (P06756 891-1048 partner): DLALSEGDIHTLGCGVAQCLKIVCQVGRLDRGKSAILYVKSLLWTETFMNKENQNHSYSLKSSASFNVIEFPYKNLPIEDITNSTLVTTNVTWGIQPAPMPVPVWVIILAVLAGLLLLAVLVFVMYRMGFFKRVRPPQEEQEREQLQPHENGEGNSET
αvβ1 integrin (αvβ1 expressing CHO cells), sequence (P05556 21-798): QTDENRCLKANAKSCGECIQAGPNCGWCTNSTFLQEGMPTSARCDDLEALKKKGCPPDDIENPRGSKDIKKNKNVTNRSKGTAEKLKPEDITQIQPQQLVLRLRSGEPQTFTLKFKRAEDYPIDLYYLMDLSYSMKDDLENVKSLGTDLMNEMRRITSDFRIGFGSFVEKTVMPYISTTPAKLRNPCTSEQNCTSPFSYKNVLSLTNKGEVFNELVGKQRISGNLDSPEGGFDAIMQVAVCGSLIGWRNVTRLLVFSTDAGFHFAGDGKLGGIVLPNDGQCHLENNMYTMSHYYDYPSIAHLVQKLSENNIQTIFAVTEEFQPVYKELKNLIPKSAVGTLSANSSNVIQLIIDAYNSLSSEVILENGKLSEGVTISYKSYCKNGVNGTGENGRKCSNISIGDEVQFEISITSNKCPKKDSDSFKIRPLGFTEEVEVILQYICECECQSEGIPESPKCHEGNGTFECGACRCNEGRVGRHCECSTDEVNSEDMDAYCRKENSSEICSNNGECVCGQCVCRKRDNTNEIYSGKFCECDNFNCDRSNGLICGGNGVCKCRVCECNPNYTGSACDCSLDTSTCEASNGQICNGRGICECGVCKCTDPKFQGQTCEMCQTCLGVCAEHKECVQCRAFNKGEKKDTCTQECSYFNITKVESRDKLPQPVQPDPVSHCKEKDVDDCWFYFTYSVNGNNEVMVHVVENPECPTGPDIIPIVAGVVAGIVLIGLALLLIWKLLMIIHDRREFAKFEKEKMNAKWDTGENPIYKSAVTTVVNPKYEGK

| Structure (SMILES) | IC50 [nM] |
| --- | --- |
| Cn1ncc2cc(C(=O)N[C@@H](Cc3ccc(OCCCc4ccc5c(n4)NCCC5)cc3)C(=O)O)ccc21 [Example 43, (2S)-2-[(1-methylindazole-5-carbonyl)amino]-3-[4-[3-(5,6,7,8-tetrahydro-1,8-naphthyridin-2-yl)propoxy]phenyl]propanoic acid] | < 50 |
| O=C(N[C@@H](Cc1ccc(OCCCC2CCc3cccnc3N2)cc1)C(=O)O)c1c(Cl)cccc1Cl (stereo partly drawn) [Example 27, (2S)-2-(2,6-dichlorobenzamido)-3-(4-(3-(1,2,3,4-tetrahydro-1,8-naphthyridin-2-yl)propoxy)phenyl)propanoic acid] | < 50 |
| O=C(N[C@@H](Cc1ccc(OCCCc2ccc3c(n2)NCCC3)cc1)C(=O)O)c1c(Cl)cncc1Cl [Example 15, (S)-2-(3,5-dichloroisonicotinamido)-3-(4-(3-(5,6,7,8-tetrahydro-1,8-naphthyridin-2-yl)propoxy)phenyl)propanoic acid] | < 50 |
| O=C(N[C@@H](Cc1cccc(OCCCc2ccc3c(n2)NCCC3)c1)C(=O)O)c1c(Cl)cccc1Cl [Example 37, (2S)-2-((2,6-dichlorobenzoyl)amino)-3-(3-(3-(5,6,7,8-tetrahydro-1,8-naphthyridin-2-yl)propoxy)phenyl)propanoic acid] | 250 to 1000 |
| O=C(N[C@@H](Cc1ccc(N2CC(c3ccc4c(n3)NCCC4)C2)cc1)C(=O)O)c1c(Cl)cccc1Cl [Example 22, (S)-2-(2,6-dichlorobenzamido)-3-(4-(3-(5,6,7,8-tetrahydro-1,8-naphthyridin-2-yl)azetidin-1-yl)phenyl)propanoic acid] | < 50 |
| CN1CCN=C(NCCCCCCCC[C@H](NC(=O)c2c(Cl)cccc2Cl)C(=O)O)C1=O [Example 53, (S)-2-(2,6-dichlorobenzamido)-10-((4-methyl-3-oxo-3,4,5,6-tetrahydropyrazin-2-yl)amino)decanoic acid] | > 1000 |
| O=C(N[C@@H](Cc1ccc(COCCc2ccc3c(n2)NCCC3)cc1)C(=O)O)c1c(Cl)cccc1Cl [Example 29, (S)-2-(2,6-dichlorobenzamido)-3-(4-((2-(5,6,7,8-tetrahydro-1,8-naphthyridin-2-yl)ethoxy)methyl)phenyl)propanoic acid trifluoroacetate] | < 50 |
| Cn1ncc2ccc(C(=O)N[C@@H](Cc3ccc(OCCCc4ccc5c(n4)NCCC5)cc3)C(=O)O)cc21 [Example 41, (2S)-2-[(1-methylindazole-6-carbonyl)amino]-3-[4-[3-(5,6,7,8-tetrahydro-1,8-naphthyridin-2-yl)propoxy]phenyl]propanoic acid] | < 50 |
| Cn1ncc2c(C(=O)N[C@@H](CCCCCCCc3ccc4c(n3)NCCC4)C(=O)O)cccc21 [Compound 115] | 250 to 1000 |
| O=C(NC(Cc1ccc(OCC2CCC(Nc3ccccn3)CC2)cc1)C(=O)O)c1c(Cl)cccc1Cl [Example 25, (S)-2-(2,6-dichlorobenzamido)-3-(4-(((1s,4R)-4-(pyridin-2-ylamino)cyclohexyl)methoxy)phenyl)propanoic acid] | 50 to 250 |
| O=C(NC(Cc1ccc(O[C@H]2CC[C@@H](Nc3ccccn3)CC2)cc1)C(=O)O)c1c(Cl)cccc1Cl (stereo partly drawn) [Example 38, (2S)-2-[(2,6-dichlorobenzoyl)amino]-3-[4-[4-cis-(2-pyridylamino)cyclohexoxy]phenyl]propanoic acid] | < 50 |
| O=C(N[C@@H](Cc1ccc(N2CC(Cc3ccc4c(n3)NCCC4)C2)cc1)C(=O)O)c1c(Cl)cccc1Cl [Example 21, (S)-2-(2,6-dichlorobenzamido)-3-(4-(3-((5,6,7,8-tetrahydro-1,8-naphthyridin-2-yl)methyl)azetidin-1-yl)phenyl)propanoic acid] | > 1000 |
| O=C(N[C@@H](CCCCCCCCNC1=NCCNC1)C(=O)O)c1c(Cl)cccc1Cl [Example 47, (S)-2-(2,6-dichlorobenzamido)-10-((3,4,5,6-tetrahydropyrazin-2-yl)amino)decanoic acid] | > 1000 |
| Cn1ncc2cc(C(=O)N[C@@H](CCCCCCCc3ccc4c(n3)NCCC4)C(=O)O)ccc21 [Compound 104] | 50 to 250 |
